One assay has as its system mda-8. Nature of the assay: mda-8 expression (Northern blotting). It is filed as cell-based, human. The conditions noted are these: H0-1; 96 hours; doses of FIG. 15 legend. Here is the method:
(§1) The mass excision of the library was performed using ExAssist helper phage as described above. The SOLR strain of Escherichia coli and cDNA phagemids were mixed at 37° C. for 15 min and plated onto LB plates containing ampicillin and IPTG/X-gal. White colonies were chosen at random, isolated and grown in LB medium. Plasmid minireps and restriction enzyme digestions were performed to confirm the presence of inserts. The inserts were isolated and used as robes for Northern blotting analysis (5,25). […] Radiolabeled probes were generated by random oligonucleotide priming (25). Prehybridization, hybridization, posthybridization washes, and autoradiography were performed as described (5,18,25).

Assay [1] has as its system H0-1 human melanoma cell line. Nature of the assay: 96-h growth suppression (cell number by Coulter Counter). In kind it is cell-based. The following applies: H0-1 cells, degree of initial 96 hr growth suppression versus untreated control. The protocol:
FIG. 1A-B Effect of continuous exposure to various growth and differentiation modulating agents on the 96-h growth of the human melanoma cell line, H0-1. Cells were seeded at 5×10^4/35-mm tissue culture plate and 24 h later the medium was changed with the indicated compounds. Cell numbers were determined by Coulter Counter after 96-h growth. Further details can be found in Materials and Methods.
The H0-1 cell line is a melanotic melanoma derived from a person and was used between passage 100 and 125 (6,8,13). H0-1 cells were kindly provided by Dr. Beppino C. Giovanella, Stehlin Foundation for Cancer Research, Houston, Tex. Cultures were grown at 37° C. in a 95% air 5% CO2-humidified incubator in Dulbecco's modified Eagle's medium (DMEM) supplemented with 10% fetal bovine serum (DMEM-10) (Hyclone, Logan, Utah). H0-1 cells were maintained in the logarithmic stage of growth by subculturing (1:5 or 1:10) prior to confluency approximately every 4 to 5 days. […] Total cell numbers were determined after days 4, 7, 14, and 21, using a ZM Coulter Counter, and viable cell numbers were determined by trypan blue dye exclusion (6). […] Increases in cell number (two or more population doublings) after removal of the inducing agent(s) was considered reversible growth suppression. […] Conditioned medium was collected from treated cultures, contaminating cells were removed by centrifugation at 1000 rpm/10 min., and conditioned medium was stored at 4° C. until assayed for gene modulatory activity. Control conditioned medium was obtained as experimental conditioned medium from cells receiving only a medium change 24 hours after plating in the absence of test compound(s) and growth for 72 hours in DMEM-10.

Another assay has as its system mda-4. Nature of the assay: mda-4 expression (Northern blotting). In kind it is cell-based, human. The conditions noted are these: H0-1; 96 hours; doses of FIG. 15 legend. The protocol: as §1
In a further assay the test system is H0-1 cells. Nature of the assay: Northern blotting analysis of steady-state mRNA levels. It is filed as cell-based, human. The conditions noted are these: FIG. 1 concentrations; for c-jun and jun-B expression / c-myc expression: 96 hours. The protocol:
Steady-state levels of specific mRNAs were determined by Northern blotting analysis of total RNA probed with appropriate ^32P-labeled gene probes as described previously (14-16). RNAs were analyzed from cells treated with inducer for 24 hours, treated for 24 hours with inducer followed by growth for 72 hours in the absence of inducer, or treated continuously for 96 hours with the inducer. The concentration of inducing compounds used were the same as those used for growth studies. The effect of conditioned medium on gene expression changes was determined by treating H0-1 cells for 24 hours with a 1:2 dilution of conditioned medium (equal volumes of conditioned medium and DMEM supplemented with 10% fetal bovine serum (DMEM-10) or for 96 hours with a 1:4 dilution of conditioned medium (1 vol. of conditioned medium to 3 vol. of DMEM-10). The probes used in the present study were specific for β-actin (17), γ-actin (17), c-jun (18), c-myc (19), fibronectin (20), gro/MGSA (21), HLA Class I antigen (22), HLA Class II antigen (HLA-DRβ) (22), α5 integrin (23), β1 integrin (24), ISG-15 (25), ISG-54 (25), jun-B (26), and tenascin (27). Northern blots were also probed with a ^32P-labeled GAPDH gene (15) to verify similar mRNA expression under the various experimental conditions. Following hybridization, the filters were washed and exposed for autoradiography.

The test system of a further assay is mda-6. Nature of the assay: mda-6 expression (Northern blotting). It is filed as cell-based, human. The conditions noted are these: H0-1; 96 hours; doses of FIG. 15 legend. Here is the method:
as §1
Total cytoplasmic RNA was isolated and Northern blotting hybridization was performed as described (Reddy et al., 1991; Su et al., 1991; Jiang et al., 1992). Ten μg of RNA was denatured with glyoxal/DMSO, electrophoresed on 1.0% agarose gels, transferred to nylon membranes and hybridized to a ^32P-labeled p53 probe (Baker et al., 1990). The nylon membrane was stripped and hybridized to a ^32P-labeled mda-6 probe (Jiang and Fisher, 1993) and then after a second stripping the membrane was hybridized to a ^32P-labeled rat GAPDH probe (Fort et al., 1985), as described previously (Reddy et al., 1991; Su et al., 1991; Jiang et al., 1992). Following hybridization, the filters were washed and exposed for autoradiography (Reddy et al., 1991; Su et al., 1991; Jiang et al., 1992). mda-6 and GAPDH gene expression were also determined by reverse transcription-polymerase chain reaction (RT-PCR) as described (Adollahi et al., 1991; Lin et al., 1994; Jiang et al., 1994b). Total cytoplasmic RNA was treated with 0.5 units DNase (Boehringer-Mannheim Biochemicals)/μg RNA in 15% glycerol, 10 mM Tris, pH 7.5, 2.5 mM MgCl2, 0.1 mM EDTA, 80 mM KCl, 1 mM CaCl2 and 1 unit/ml RNasin (Promega) at 30° C. for 10 min. RNA was extracted with phenol-chloroform, precipitated with sodium acetate/ethanol and RNA pellets were resuspended in diethylpyrocarbonate-treated H2O. One μg of total RNA was reverse transcribed with 200 units of murine leukemia virus reverse transcriptase (Bethesda Research Laboratories) in 20 μl containing 1 mM deoxyribonucleotide triphosphates, 4 mM MgCl2, 10 mM Tris, pH 8.3, 50 mM KCl, 0.001% gelatin and 0.2 μg oligo-dT primer. Samples were adjusted to 100 μl with buffer containing 0.2 mM deoxyribonucleotide triphosphates, 2 mM MgCl2, 10 mM Tris, pH 8.3, 50 mM KCl and 0.001% gelatin. Fifty pmol of each primer, 1.5 units Taq DNA polymerase (Perkin-Elmer Cetus) were added and samples were covered with mineral oil, heated at 95° C. for 5 min and subjected to 25 cycles of PCR in a Perkin-Elmer Thermal Cycler using 1 min denaturation at 94° C., 2 min annealing at 55° C. and 3 min polymerization at 72° C. After extraction with chloroform, 20 μl of products were electrophoresed, blotted onto nylon filters and hybridized with an mda-6 or GAPDH specific probe. The mda-6 primers were 5′ to 3′ […] (SEQ ID NO:26) and […] (SEQ ID NO:27)(corresponding to nt 1527 to 1546) (GenBank accession number U09579); and the GAPDH primers were 5′ to 3′ […] (SEQ ID NO:28)and […] (SEQ ID NO:29)(corresponding to nt 1070 to 1053) (Tokunaga et al., 1987).

The test system of another assay is mda-9. Nature of the assay: mda-9 expression (Northern blotting). The following applies: H0-1; 96 hours; doses of FIG. 15 legend. It is filed as cell-based, human. The protocol: as §1
For the next assay, the system named is mda-5. Nature of the assay: mda-5 expression (Northern blotting). It is filed as cell-based, human. The conditions noted are these: H0-1; 96 hours; doses of FIG. 15 legend. The protocol: as §1
The test system of a further assay is mda-7. Nature of the assay: mda-7 expression (Northern blotting, RT-PCR). In kind it is cell-based, human. The following applies: H0-1; 96 hours; doses of FIG. 15 legend. The protocol:
as §1

Entries after “also recorded” stand apart in the source; their conditions may differ.

With `COc1c(C)c2c(c(O)c1C/C=C(\C)CCC(=O)O)C(=O)OC2` [MPA, mycophenolic acid], the mda-8 expression entry in the assay with mda-8 is given as “No change in expression”. Moreover, the “Growth Suppression (reversible)” value in assay [1] (Table 1) is on record as 3+ (3+ = ~50 to 60% reduction in growth in comparison with untreated control cultures). In addition, the “Growth Suppression (reversible)” value in assay [1] (Table 2) is given as “− (− = no significant change in growth (<10% reduction in growth in comparison with untreated control cultures))”. Besides, the mda-4 expression result with mda-4 is recorded as “No or only a small change in expression”. Further, in the assay with H0-1 cells (96 h), the “HLA Class I antigen gene expression” value is reported as “did not significantly alter”, the fibronectin expression entry was “most effective single agents”, the “induction of gro/MGSA gene expression” value is reported as “did not” and the tenascin expression entry is recorded as “enhanced tenascin expression”. Besides, in the assay with H0-1 cells, the “c-jun and jun-B expression” value is reported as “increase”; the c-myc expression result was “downregulated”. The mda-6 expression entry in the assay with mda-6 is listed as “no significant or reduced alteration in expression”. For the same molecule, the mda-9 expression entry with mda-9 was “No change in mda-9 expression”. In addition, the mda-5 expression result in the assay with mda-5 was “No change in expression”. In addition, in the assay with mda-7, the mda-7 expression entry is given as “Increased expression; also recorded: induced”.

“IFN-γ: Recombinant human immune interferon”: in the assay on mda-8, the mda-8 expression entry is listed as “enhanced mda-8 expression; also recorded: increased mda-8 expression”. Besides, in assay [1] (Table 2), the “Growth Suppression (reversible)” value is reported as 2+ (2+ = ~40% reduction in growth in comparison with untreated control cultures). In the assay with mda-4, the mda-4 expression result was “Increased expression”. Also, in the assay on H0-1 cells (96 h), the “HLA Class I antigen gene expression” value is “enhanced HLA Class I antigen expression”, the “HLA Class II antigen gene (HLA-DRβ) expression” value is “enhanced expression”, the fibronectin expression result is on record as “most effective single agents” and the “induction of gro/MGSA gene expression” value is recorded as “did not induce gro/MGSA expression”. In the assay on H0-1 cells (96 h), the tenascin expression result is “enhanced tenascin expression” and the β1 integrin expression entry is “upregulation”. In addition, in the assay on H0-1 cells, the “c-jun and jun-B expression” value is reported as “increase”; the c-myc expression result was “increased c-myc expression”. For the same molecule, in the assay on mda-6, the mda-6 expression entry is given as “no significant or reduced alteration in expression”. Also, in the assay with mda-9, the mda-9 expression entry is given as “No change in mda-9 expression”. Further, the mda-5 expression entry in the assay on mda-5 was “Enhanced expression; also recorded: induced”. In the assay on mda-7, the mda-7 expression entry is recorded as “No induction in mda-7 expression; also recorded: does not result in significant mda-7 expression”.

(Values after patent US7507792B2, “MDA-7 proteins and methods of use thereof” (The Trustees of Columbia University In The City of New York, priority 1993, dated 2009).)
